Data taken from ChEMBL document CHEMBL5338732, “Perspective for Discovery of Small Molecule IL-6 Inhibitors through Study of Structure-Activity Relationships and Molecular Docking” (J Med Chem, 2023).
pIC50: −log10 of the molar value.

Columns and labels:
Assay type in all cases: functional, cell-based
[1] = Cytotoxicity against human HCT116-p53-null cells assessed as inhibition of cell growth incubated for 72 hrs by MTT assay
[2] = Cytotoxicity against human p53HCT116 cells assessed as inhibition of cell growth incubated for 72 hrs by MTT assay; conditions: p53HCT116, 72 h
MDA-MB-435 = experiment: Cytotoxicity against human MDA-MB-435 cells assessed as reduction in cell growth incubated for 72 hrs by MTT assay; conditions: MDA-MB-435, 72 h
MH60 = experiment: Cytotoxicity in mouse MH60 cells assessed as inhibition of recombinant human IL-6-induced growth incubated for 72 hrs by tetrazolium method; conditions: MH60, 72 h

O=C(NNc1nc2cc(F)ccc2n2cccc12)c1cnccn1 showed a pIC50 [1] of 6.40, a pIC50 [2] of 6.40 and a pIC50 (MDA-MB-435) of 6.40.

Molecule CCCCC1=C(C)C(=O)[C@@](C)(CN2c3ccccc3[C@]3(O)CCO[C@H]23)C1=O has a pIC50 (MH60) of 5.10.

In the case of CCCCC1=C(C)C(=O)[C@](C)(CN2c3ccccc3[C@]3(O)CCO[C@H]23)C1=O, the pIC50 (MH60) was 4.52.

For Cc1c(-c2ccc(O)cc2)n(Cc2ccc(OCCN3CCCCCC3)cc2)c2ccc(O)cc12 [BAZEDOXIFENE], the pIC50 (MH60) was 5.42.
